Values joined by “and” are separate entries in the source; they are usually repeats but may differ in a detail not shown here. Equal entries are not always repeated.
Test system: patients with prior myocardial infarction (CARE study)
Assay: CARE aligned analysis (prospective and case/control design, white males): association of genotypes with pravastatin efficacy (Tables 13, 15)
Format: in vivo, human
Conditions: for Pravastatin Patients n/total / Pravastatin Patients (%) / 2 Rare Alleles (%), Pravastatin Patients: F&NF MI; for Pravastatin Patients n/total / Pravastatin Patients (%): WM; for Pravastatin vs placebo odds ratio, 0 rare alleles / Pravastatin vs placebo odds ratio, 1 rare allele / Pravastatin vs placebo odds ratio, 2 rare alleles / 2 rare alleles n/total (%), pravastatin patients: CARE, F MI/SD/NF MI; for Pravastatin vs. Placebo Odds Ratio (95% CI), Patients with 0 Rare Alleles / n/total (%) cases, Pravastatin Patients, 0 Rare Alleles: PON1 hCV2548962, 0 rare alleles; for Pravastatin vs. Placebo Odds Ratio (95% CI), Patients with 0 Rare Alleles / n/total (%) cases, Pravastatin Patients, 0 Rare Alleles / Pravastatin vs. Placebo Odds Ratio (95% CI), Patients with 1 Rare Allele / n/total (%) cases, Pravastatin Patients, 1 Rare Allele / Pravastatin vs. Placebo Odds Ratio (95% CI), Patients with 2 Rare Alleles / n/total (%) cases, Pravastatin Patients, 2 Rare Alleles: White Males; for Pravastatin vs. Placebo Odds Ratio (95% CI), Patients with 1 Rare Allele / n/total (%) cases, Pravastatin Patients, 1 Rare Allele: PON1 hCV2548962, 1 rare allele
Procedure: The data presented in Table 8 based on an association of genotypes with pravastatin efficacy of the CARE samples were further analyzed and presented in Table 13. The further analysis was performed to align the data obtained from the analysis of the CARE samples, which was a prospective study, to the analysis of the WOSCOP samples, which was a case/control study. Table 13 also presents an analysis of the association of genotypes with pravastatin efficacy in the WOSCOPs samples. Relative to the analysis performed on the data presented in Table 8, there are two significant differences to determine if the SNP influenced pravastatin efficacy. Data obtained from the CARE samples were separated by study design into two groups, those in the prospective study design group and those in the case/control study design group. The original care study contained 16 protocol defined cardiovascular disease defined endpoints and 150 other phenotypes. […] The control groups used to compare the data were also divided into two groups, the “all possible” control group and the “cleaner” control group. […] Because the participants in the WOSCOPs trial were all white males, only data obtained from white males in the CARE study were analysed. Data from the “all possible” and “cleaner” controls were compared to data obtained from the cases in the prospective study design while only data from “cleaner” controls were compared to cases in the case/control study design. The data from the case/control cohorts were analysed using conditional logistic regression (as opposed to logistic regression used for the original anaylsis).
The anaylsis was refined as described for both Tables 13 and 14.

[1] = NPC1 hCV7490135, 0 Rare Alleles, CARE Prospective, Cleaner controls
[2] = NPC1 hCV7490135, 1 Rare Allele, CARE Prospective, Cleaner controls
[3] = NPC1 hCV25472673, 0 Rare Alleles, CARE Case/Control, Cleaner controls
[4] = NPC1 hCV25472673, 0 Rare Alleles, CARE Prospective, Cleaner controls
[5] = NPC1 hCV25472673, 1 Rare Allele, CARE Case/Control, Cleaner controls
[6] = NPC1 hCV25472673, 1 Rare Allele, CARE Prospective, Cleaner controls
[7] = PLAB hCV7494810, 0 Rare Alleles, CARE Case/Control, All Possible controls
[8] = PLAB hCV7494810, 0 Rare Alleles, CARE Case/Control, Cleaner controls
[9] = PLAB hCV7494810, 0 Rare Alleles, CARE Prospective, All Possible controls
[10] = PLAB hCV7494810, 1 Rare Allele, CARE Case/Control, All Possible controls
[11] = PLAB hCV7494810, 1 Rare Allele, CARE Case/Control, Cleaner controls
[12] = PLAB hCV7494810, 1 Rare Allele, CARE Prospective, All Possible controls
[13] = PLAB hCV7494810, Case/Control, listed as Pravastatin
[14] = PLAB hCV7494810, Prospective, listed as Pravastatin
[15] = CARE Case/Control, Fatal & Nonfatal MI, Cleaner controls
[16] = CARE Prospective, Fatal & Nonfatal MI, Cleaner controls
[17] = CARE Prospective, Total CHD Events, All Possible controls
[18] = PON1 hCV2548962, 2 rare alleles, CARE Case/Control, Fatal & Nonfatal MI, Cleaner controls
[19] = PON1 hCV2548962, 2 rare alleles, CARE Prospective, Fatal & Nonfatal MI, Cleaner controls

With `CC[C@H](C)C(=O)O[C@H]1C[C@H](O)C=C2C=C[C@H](C)[C@H](CC[C@@H](O)C[C@@H](O)CC(=O)O)[C@H]21` [pravastatin] the “Pravastatin Patients n/total” value (NOS3 hCV3219460, 1 Rare Allele, CARE Prospective, Cleaner controls) was 64/366, the “Pravastatin vs placebo odds ratio, 0 rare alleles” value (NOS3 hCV3219460, Case/Control) was 0.76 and 0.67 and the “Pravastatin vs placebo odds ratio, 1 rare allele” value (NOS3 hCV3219460, Case/Control) was 1.04 and 0.98. The “Pravastatin vs placebo odds ratio, 2 rare alleles” value (NOS3 hCV3219460, Case/Control) was 0.27 and 0.23, the “Pravastatin vs placebo odds ratio, 0 rare alleles” value (NOS3 hCV3219460, Prospective) was 0.79 and 0.70 and the “Pravastatin vs placebo odds ratio, 1 rare allele” value (NOS3 hCV3219460, Prospective) was 1.04 and 0.95. For the same molecule, the “Pravastatin vs placebo odds ratio, 2 rare alleles” value (NOS3 hCV3219460, Prospective) was 0.27 and 0.22, the “Pravastatin Patients (%)” value [1] was “(18.3%)” and the “Pravastatin Patients n/total” value [1] was 44/240. The “Pravastatin Patients (%)” value [2] was “(13.7%)”, the “Pravastatin Patients n/total” value [2] was 56/408 and the “2 Rare Alleles (%), Pravastatin Patients” value (NPC1 hCV7490135, CARE Prospective) was “(13.8%)”. The “Pravastatin Patients (%)” value [3] was “(17.4%)”, the “Pravastatin Patients n/total” value [3] was 53/304 and the “Pravastatin Patients (%)” value [4] was “(17.3%)”. The “Pravastatin Patients n/total” value [4] was 53/307, the “Pravastatin Patients (%)” value [5] was “(13.5%)” and the “Pravastatin Patients n/total” value [5] was 51/378. For the same molecule, the “Pravastatin Patients (%)” value [6] was “(13.2%)”, the “Pravastatin Patients n/total” value [6] was 51/386 and the “2 Rare Alleles (%), Pravastatin Patients” value (NPC1 hCV25472673, CARE Case/Control) was “(15.0%)”. The “2 Rare Alleles (%), Pravastatin Patients” value (NPC1 hCV25472673, CARE Prospective) was “(14.7%)”, the “2 rare alleles n/total (%), pravastatin patients” value (from here on “2 rare alleles n/total (%)”) (NPC1 hCV25472673, Case/Control) was “(12.6%)” and the “Pravastatin vs placebo odds ratio, 0 rare alleles” value (NPC1 hCV25472673, Case/Control) was 1.21. The “Pravastatin vs placebo odds ratio, 1 rare allele” value (NPC1 hCV25472673, Case/Control) was 0.65, the “Pravastatin vs placebo odds ratio, 2 rare alleles” value (NPC1 hCV25472673, Case/Control) was 0.34 and the “2 rare alleles n/total (%)” value (NPC1 hCV25472673, Prospective) was “(8.7%)”. For the same molecule, the “Pravastatin vs placebo odds ratio, 0 rare alleles” value (NPC1 hCV25472673, Prospective) was 1.25, the “Pravastatin vs placebo odds ratio, 1 rare allele” value (NPC1 hCV25472673, Prospective) was 0.71 and 0.62 and the “Pravastatin vs placebo odds ratio, 2 rare alleles” value (NPC1 hCV25472673, Prospective) was 0.49 and 0.34. The “Pravastatin Patients (%)” value [7] was “(12.2%)”, the “Pravastatin Patients n/total” value [7] was 84/691 and the “Pravastatin Patients (%)” value [8] was “(17.5%)”. The “Pravastatin Patients n/total” value [8] was 84/481, the “Pravastatin Patients (%)” value [9] was “(11.9%)” and the “Pravastatin Patients n/total” value [9] was 84/706. For the same molecule, the “Pravastatin Patients (%)” value [10] was “(8.5%)”, the “Pravastatin Patients n/total” value [10] was 38/448 and the “Pravastatin Patients (%)” value [11] was “(12.6%)”. For the same molecule, the “Pravastatin Patients n/total” value [11] was 38/302, the “Pravastatin Patients (%)” value [12] was “(8.4%)” and the “Pravastatin Patients n/total” value [12] was 38/455. For the same molecule, the “2 Rare Alleles (%), Pravastatin Patients” value (PLAB hCV7494810, CARE Prospective) was “(6.9%)”, the “2 rare alleles n/total (%)” value (PLAB hCV7494810, Case/Control) was “(8.3%)” and the “Pravastatin vs placebo odds ratio, 0 rare alleles” value (PLAB hCV7494810, Case/Control) was 0.95. The “Pravastatin vs placebo odds ratio, 0 rare alleles” value [13] was 1.03, the “Pravastatin vs placebo odds ratio, 1 rare allele” value [13] was 0.50 and 0.44 and the “Pravastatin vs placebo odds ratio, 2 rare alleles” value [13] was 1.62 and 1.45. For the same molecule, the “2 rare alleles n/total (%)” value (PLAB hCV7494810, Prospective) was “(8.3%)”, the “Pravastatin vs placebo odds ratio, 0 rare alleles” value (PLAB hCV7494810, Prospective) was 0.93 and the “Pravastatin vs placebo odds ratio, 0 rare alleles” value [14] was 1.03. For the same molecule, the “Pravastatin vs placebo odds ratio, 1 rare allele” value [14] was 0.52 and 0.46, the “Pravastatin vs placebo odds ratio, 2 rare alleles” value [14] was 1.61 and 1.24 and the “Pravastatin vs. Placebo Odds Ratio (95% CI), Patients with 0 Rare Alleles” value [15] was 0.84 (0.58 to 1.22). The “n/total (%) cases, Pravastatin Patients, 0 Rare Alleles” value (“n/total (%) cases … 0 Rare Alleles” below) [15] was 67/416 (16.1%), the “Pravastatin vs. Placebo Odds Ratio (95% CI), Patients with 0 Rare Alleles” value [16] was 0.81 (0.56 to 1.16) and the “n/total (%) cases … 0 Rare Alleles” value [16] was 67/423 (15.8%). The “Pravastatin vs. Placebo Odds Ratio (95% CI), Patients with 0 Rare Alleles” value [17] was 0.77 (0.61 to 0.98), the “n/total (%) cases … 0 Rare Alleles” value [17] was 183/613 (29.9%) and the “Pravastatin vs. Placebo Odds Ratio (95% CI), Patients with 1 Rare Allele” value [15] was 0.63 (0.42 to 0.95). For the same molecule, the “n/total (%) cases, Pravastatin Patients, 1 Rare Allele” value (“n/total (%) cases … 1 Rare Allele” below) [15] was 50/335 (14.9%), the “Pravastatin vs. Placebo Odds Ratio (95% CI), Patients with 1 Rare Allele” value [16] was 0.64 (0.31 to 1.36) and the “n/total (%) cases … 1 Rare Allele” value [16] was 50/340 (14.7%). For the same molecule, the “Pravastatin vs. Placebo Odds Ratio (95% CI), Patients with 1 Rare Allele” value [17] was 0.94 (0.58 to 1.54), the “n/total (%) cases … 1 Rare Allele” value [17] was 151/504 (30.0%) and the “ORs of fatal or non-fatal MI when treated with pravastatin” value (PON1 hCV2548962, 2 rare alleles, CARE and WOSCOPs sample sets) was 0.28-0.34. The “Pravastatin vs. Placebo Odds Ratio (95% CI), Patients with 2 Rare Alleles” value [18] was 0.29 (0.12 to 0.71), the “n/total (%) cases, Pravastatin Patients, 2 Rare Alleles” value [18] was 9/79 (11.4%) and the “Pravastatin vs. Placebo Odds Ratio (95% CI), Patients with 2 Rare Alleles” value [19] was 0.32 (0.11 to 0.95). For the same molecule, the “n/total (%) cases, Pravastatin Patients, 2 Rare Alleles” value [19] was 9/80 (11.3%) and the “Pravastatin vs. Placebo Odds Ratio (95% CI), Patients with 2 Rare Alleles” value (PON1 hCV2548962, 2 rare alleles, CARE Prospective, Total CHD Events, All Possible controls) was 0.28 (0.13 to 0.60).
